Laboratory results from patent US6503941B2, “Ferulic ester derivative, 3,9-diferulylcoumestrol and cosmetic product containing same” (Hanbul Cosmetics Co., Ltd., priority 2000, dated 2003).

Assays:
[1] = system: tyrosinase; assay: Tyrosinase inhibition effect (whitening activity); type: biochemical; conditions: 0.1%(wt/wt) sample solution; tyrosine 0.2 mg/ml, tyrosinase 680 units/ml, 37° C.
Procedure: And whitening activity and anti-oxidant activity were measured by determining tyrosinase inhibition effect and using NBT method. 0.1% vitamin C, 0.1% vitamin E, kojic acid and albutin were used as sample. […] A solution for blank test was tyrosine 1 ml+phosphoric acid buffer 1 ml+distilled water 1 ml. The procedure of the test is as follows. [table] 1) A,B and C are mixed and maintained at 37° C. for 30 min. 2) D is added and maintained for just 30 min. 3) After 10 min±10 sec, they are took out and the reaction ends in a refrigerating condition by ice. 4) when comparing the absorbance the comparative samples, the absorbencies of comparative group are tested and then those of blank test group are test(at […]). Tyrosinase activity inhibition effect(%) us calculated in the following way and the result is shown as Table 2. Tyrosinase activity inhibition effect (%): [1−(E−B/C)]×100 (B: blank test group, C: control group, E: test group)

[2] = Anti-oxidant effect, activated oxygen removal by NBT method; type: biochemical; conditions: 0.1%(wt/wt) sample solution; NBT absorbance at 560 nm; suppression ratio
Procedure: And whitening activity and anti-oxidant activity were measured by determining tyrosinase inhibition effect and using NBT method. 0.1% vitamin C, 0.1% vitamin E, kojic acid and albutin were used as sample. To determine anti-oxidant effect, activated oxygen produced from xanthine and xanthine oxidase were measured using NBT method and activated oxygen removal effect of the tested materials was determined. Activated oxygen was produced by xanthine and xanthine oxidase. The activated oxygen was determined by measuring the blue color produced from the reaction of the activated oxygen and Nitroblue tetrasolium (NBT) at 560 nm of wavelength. 6) Xanthines oxidase solution: xanthine oxidase(Boehringer) was diluted about 100 times so that its blank test absorbance within the range of 0.2-0.23. In other word, the purified water was diluted so that the absorbance change be A560=0.3/20 min. (1)1,2,3,4 and 5 are introduced into vial bottle and 0.1 ml of sample solution is added, which are maintained at 5° C. for 10 min. (2) It is added by 6 and stirred immediately, followed by 20 min of culture at 25° C. (3) After 7 is added, the reaction is stopped. Then, absorbance (St) at 560 nm is measured. (4) Blank test is carried out in the same way except distilled water is used instead of sample solution and absorbance (Bt) is measured. 5) Blank test for sample is carried out in the same way except distilled water is used instead of 6 and absorbance (Bo) is measured. The effect is calculated in the following way. Suppression ratio (%)=[1−(St−So)/(Bt−Bo)×100

[3] = system: collagen in the skin of hairless mice; assay: Collagen formation effect, skin tissue test for collagen proliferation promoting effect; type: in vivo; conditions: 0.1%(wt/wt) 1,3-BG solution applied to body of hairless mice
Procedure: To confirm the collagen formation effect of the synthesized 3,9-diferulylcoumestrol, 10 female hairless mice of 8week age were prepared. From the 2 mice, skin was taken out and standard dye samples were prepared using the side and middle part of the skin for investigation the collagen proliferation level. The other 8 mice were divided into two for the applied group and the control group.
In the same test condition, the whole body except head and belly of the applied group and the control group and were applied by 3,9-diferulycoumestrol 0.1%(wt/wt) 1,3-BG solution and 1,3-BG solution, for 15 days and 30 days.
From the applied group and the control group respectively, 2 mice were selected and their skins were cut out, then dyed samples were obtained from the side and middle part of the skin. After 30 days, skin dyed samples were obtained in the same way. For each of the obtained 10 dyed skin samples of the control group and the applied group, collagen proliferation promoting effect were compared on the basis of the skin condition of &week age. […] From the result, it was experimentally confirmed that 3,9diferulylcoumestrol is excellent in collagen synthesis and collagen proliferation promotion(FIG. 2)

[4] = system: human-derived fibroblast(ATCC, Hs68); assay: Cell toxicity and activity, MTT; type: cell-based; conditions: for Cell activity: at LD50
Procedure: Test cells of human-derived fibroblast(ATCC, Hs68) were cultivated in DMEM medium added by 10% FBS at 37° C. in the condition of 5%CO2, 100% humidity. 1×10^5 cells/ml of cells were seeded in 96 plate and incubated at 37° C. for 24 hr. Samples sterilized by 0.2 µm filter were added according to the fixed concentration and further incubated at 37° C. for 24 hr. Then, MTT regent was added and incubated at 37° C. for 4 hr, then the culture solution was removed. After, 1N NaOH isopropane solution was added and stirred for 20 min, the absorbance at 565 nm was measured. Then, the cell apoptosis concentration was determined by comparing the untreated cell (survival ratio: 100%).
Cell activity at LD50 was 20%, which was satisfactory level.

[5] = 24 hr, diluted in 1,3-butylenglycol

Row | Compound | Tyrosinase inhibition effect (%) [1] [%] | Anti-oxidant effect (%) [2] [%] | Cell activity [4] [%] | also measured
1 | COc1cc(C=CC(=O)Oc2ccc3c(c2)oc(=O)c2c4ccc(OC(=O)C=Cc5ccc(O)c(OC)c5)cc4oc32)ccc1O [3,9-diferulylcoumestrol] | 76 | 42 | 20 | collagen synthesis and proliferation in skin ([3]; after 2 weeks (15 days), vs control groups): collagen synthesis and proliferation were found; collagen proliferation in corium layer and tissue density ([3]; after 30 days): collagen proliferation in corium layer was increased and the tissue density was raised; concentration range in which cell apoptosis did not show [4, 5]: ≤ 78 µM; concentration range in which cell apoptosis did not show (%) [4, 5]: ≤ 0.0048%
2 | Tocopherol | – | 43 | – | –
3 | O=c1oc2cc(O)ccc2c2oc3cc(O)ccc3c12 [Coumestrol] | – | 28 | 20 | Evaluation (LD50) [4]: Safe; Evaluation (cell activity) [4]: excellent; LD50 % concentration ([4]; 24 hr): 0.0048%; LD50 mole concentration(mM) ([4]; 24 hr): 0.078 mM
4 | OC[C@H]1O[C@@H](Oc2ccc(O)cc2)[C@H](O)[C@@H](O)[C@@H]1O [Albutin] | 40 | – | – | –

Further lines, with some results ahead:

Row | Tyrosinase inhibition effect (%) [1] [%] | Compound | Anti-oxidant effect (%) [2] [%] | Cell activity [4] [%] | also measured
5 | 91 | O=c1cc(CO)occ1O [Kojic acid] | – | – | –
6 | 30 | O=C1O[C@H]([C@@H](O)CO)C(O)=C1O [Ascorbic acid] | – | – | –
